Reference: PMC7072103, “Simultaneous Determination of 13 Constituents of Radix Polygoni Multiflori in Rat Plasma and Its Application in a Pharmacokinetic Study” (International Journal of Analytical Chemistry, 2020)

Legend:
[1] = Pharmacokinetic study in rats after oral administration of RPM extract (UPLC-MS/MS of plasma); assay type: in vivo, Sprague-Dawley rats; conditions: for AUC(0-inf) / Cmax / MRT inf / Tmax / half-life / AUC(0-t): male, Sprague-Dawley, in vivo; for AUC(0-inf): read-out: AUC0–∞; for Cmax: read-out: Cmax; for MRT inf: read-out: MRT0–∞; for Tmax: read-out: Tmax; for half-life: read-out: t1/2 (converted); for AUC(0-t): rat, po, 36 g/kg, read-out: AUC0–t
Description: The analysis was performed on an AB Sciex API 5500 Q Trap mass spectrometer (Toronto, Canada), interfaced with a Waters Acquity UPLC separation module. Empower 3.0 and Analyst 1.62 software were used to control UPLC and mass spectrometer, respectively.
Chromatographic separation was achieved on a waters HSS C18 column (100 × 2.1 mm, 1.8 μm, kept at 40°C) using a mobile phase containing 0.025% formic acid that consisted of solvent A (water) and solvent B (acetonitrile). The mobile phase was delivered at 0.3 mL/min, and a gradient program was used as follows: 0-1 min, held 5% to 25% solvent B; 1–3.5 min, linear gradient from 25% to 35% solvent B; 3.5–5 min, linear gradient from 35% to 40% solvent B; 5-6 min, linear gradient from 40% to 60% solvent B; 6-6.1 min, linear gradient from 60% to 95% solvent B; 6.1–8 min, linear gradient from 95% to 100% solvent B; and 8-9 min, held 5% solvent B.
The MS detection was set in positive multiple reaction monitoring (MRM) mode for the analytes and IS. The turbo spray temperature was maintained at 500°C. The nebulizer gas (gas 1), heater gas (gas 2), and curtain gas was set at 45, 50, and 45 psi, respectively. The interface heater was on. The precursor ion, corresponding product ion and dwell time along with declustering potential (DP), entrance potential (EP), collision energy (CE), and collision exit potential (CXP) for each compound were optimized with standard substance. The dwell time was 50 ms for all analytes. The EP and CXP were set at –10 V and −16 V, respectively.
Sample preparations were made using the protein precipitation process. 50 μL thawed plasma, 10 μL IS working solution (puerarin 10 μg/mL), and 150 μL acetonitrile were added to a 1.5 mL tube in that order. After vortexed for 5 min and centrifuged at 12,000 g for 5 min at 4°C, 150 μL of the supernatant was transferred and a 5 μL was injected into the UPLC-MS/MS instrument for analysis.
Male Sprague-Dawley rats (200–240 g) were obtained from Beijing Vital River Laboratory Animal Technology Co., Ltd. (Beijing, China) (SCXK 2016(jing)-0006). The animals were maintained in SPF animal room at temperature 22 ± 2°C, 60 ± 5% humidity, and 12/12 h day/night cycle. All procedures were approved by the Institutional Animal Ethics Committee and performed in accordance with the Regulations of Experiment Animal Administration issued by the State Committee of Science and Technology of China. RPM extract suspended in an equal volume of 5% CMC-Na solution and orally administered to the six rats at a single dose of 36 g/kg (dose calculated as grams of crude materials used to create the extract per kilogram of rat body weight). The dose was set at a subtoxic level to investigate the pharmacokinetic profiles of the constituents of RPM and were approximately 72 times the upper dose (6 g/day) of human recommended by the 2015 edition of Chinese Pharmacopoeia (converted to rat dose based on body surface area conversion). The calculated doses of compounds based on the contents in the extract were 7.38, 14.8, 13.7, 8.82, 15.5, 11.2, 55.8, 1.08, 1170, 11.3, 25.7, 131.4, and 13.0 mg/kg for chrysophanol, emodin, aloe-emodin, rhein, physcion, questin, citreorosein, questinol, TSG, TG, CG, EG, and PG, respectively. Rats were fasted for at least 12 h before the experiments and had free access to water. Blood samples (∼0.25 mL) were collected from the retinal venous plexus into heparinized 1.5 mL polythene tubes before administration and 5, 15, and 30 min and 1, 2, 4, 6, 8, 12, and 24 h after dosing RPM extract at dose of 36 g/kg. The plasma was immediately separated from blood samples and stored frozen at −70°C until analysis.
The pharmacokinetic parameters were calculated using the pharmacokinetic software Phoenix® WinNonlin®, version 7.0 (Scientific Consulting Inc., Apex, NC, USA). The peak plasma concentration (Cmax) and time to reach Cmax (Tmax) were read directly from the experimental data. […]

[2] = Stability of the analytes in rat plasma and processed plasma samples; assay type: in vitro ADME; conditions: for Stability, post-preparative: acetonitrile-precipitated plasma supernatant, 24 h at 6°C in autosampler; for Stability, long-term (–70 °C) / Stability, short-term / Stability, freeze–thaw (three cycles): rat plasma; for Stability, long-term (–70 °C): 3 months at −70°C; for Stability, short-term: 4 h at room temperature; for Stability, freeze–thaw (three cycles): −70°C to room temperature
Description: The stability of the 13 analytes in rat plasma were assessed by analyzing samples spiked 0.2, 2.7, and 58.3 ng/mL for emodin, aloe-emodin, questin, citreorosein, questinol, TG, CG, EG, PG; 0.6, 8.1, and 175 ng/mL for TSG; 1, 13.5, and 291.6 ng/mL for rhein, physcion; and 2, 27, and 583.2 ng/mL for chrysophanol, respectively, under four conditions: (1) short-term storage for 4 h at room temperature; (2) long-term storage for (3 months at −70°C; (3) three freeze-thaw cycles; and (4) posttreatment storage for 24 h at 6°C setting in UPLC autosampler. The concentrations obtained were compared with the nominal values of the spiked samples. The stability was calculated as the percent of the measured concentration to the initial concentration at time zero. The analytes were considered stable if the assay values were within the acceptable limit of accuracy (85.0∼115%).

[3] = rat plasma, single oral dose of RPM extract 36 g/kg, n = 6, mean ± SD
[4] = high QC (58.3 ng/mL; TSG 175; rhein, physcion 292; chrysophanol 583)
[5] = low QC (0.2 ng/mL; TSG 0.6; rhein, physcion 1; chrysophanol 2)
[6] = middle QC (2.7 ng/mL; TSG 8.1; rhein, physcion 13.5; chrysophanol 27)

Row | Structure (SMILES) | Latest plasma sample time at which the constituent was detected ([1]; RPM extract 36 g/kg oral, sampling up to 24 h) | AUC(0-inf) [1, 3] | Cmax [1, 3] | MRT inf [1, 3] | Tmax [1, 3] | half-life [1, 3] | AUC(0-t) [1, 3] | Stability, post-preparative [2, 4] | Stability, post-preparative [2, 5] | Stability, post-preparative [2, 6] | Stability, long-term (–70 °C) [2, 4] | Stability, long-term (–70 °C) [2, 5] | Stability, long-term (–70 °C) [2, 6] | Stability, short-term [2, 4] | Stability, short-term [2, 5] | Stability, short-term [2, 6] | Stability, freeze–thaw (three cycles) [2, 4] | Stability, freeze–thaw (three cycles) [2, 5] | Stability, freeze–thaw (three cycles) [2, 6] | AUC0–t [1, 3]
1 | O=C1c2cccc(O)c2C(=O)c2c(O)cc(CO)cc21 [Aloe-emodin, aloe-emodin] | ≤ 12 h | 0.00846 ± 0.00344 µg·h/mL | 0.0113 ± 0.0031 µg/mL | 3.17 ± 1.54 h | 0.22 ± 0.07 h | 3.44 ± 1.4 h | 0.00728 ± 0.00325 µg·h/mL | 92.6% | 96.4% | 102% | 102% | 103% | 98.4% | 104% | 105% | 105% | 101% | 99% | 97.2% | 
2 | Cc1cc(O)c2c(c1)C(=O)c1cc(O)cc(O)c1C2=O [Emodin, 1,3,8-trihydroxy-6-methylanthracene-9,10-dione] |  | 0.801 ± 0.233 µg·h/mL | 0.175 ± 0.0338 µg/mL | 11.8 ± 5.27 h | 0.19 ± 0.09 h | 8.37 ± 4.17 h | 0.801 ± 0.187 µg·h/mL | 98.1% | 101% | 103% | 101% | 100% | 102% | 106% | 93.6% | 105% | 104% | 102% | 104% | 0.686 ± 0.187 µg·h/mL
